# Experimental data: patent US20230278972A1, “SUBSTITUTED HALOALKYL SULFONANILIDE HERBICIDES” (FMC Corporation, priority 2020, published 2023)
# Legend:
# Assay type in all cases: in vivo
# [1] = system: Ryegrass, Italian (Italian ryegrass, Lolium multiflorum); assay: Test A1 postemergence, Ryegrass, Italian; details: for Ryegrass, Italian plant response rating: postemergence; for Plant response rating, Ryegrass, Italian: Postemergence
# How it was run: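 Both timings started from seed in a loam-sand blend. Preemergence pots got a directed soil application immediately; postemergence pots were sprayed when seedlings had one or two leaves and stood 2–10 cm. Each compound was prepared in a non-phytotoxic solvent plus surfactant.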
# [2] = system: Foxtail, Giant (giant foxtail, Setaria faberi); assay: Test A1 preemergence, Foxtail, Giant
# How it was run: (§1)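 Plants grown in pots of loam/sand mix; preemergence = soil-directed spray on seeded pots, postemergence = spray at 1–2 leaves, height 2–10 cm; test chemicals formulated in non-phytotoxic solvent with surfactant.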
# corn (Zea mays) = assay: Test A1 preemergence, corn
# How it was run: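 Plants were grown in a loam soil/sand blend, with test chemicals formulated in a non-phytotoxic solvent mixture containing surfactant. Preemergence treatment (corn) was a directed soil spray at planting. Postemergence treatment was applied to plants 2 to 10 cm tall at the one- to two-leaf stage.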
# [3] = system: Ryegrass, Italian (Italian ryegrass, Lolium multiflorum); assay: Test A1 preemergence, Ryegrass, Italian
# How it was run: as §1
# [4] = system: wheat (Triticum aestivum); assay: Test A1 preemergence, wheat
# How it was run: as §1
# [5] = 31 g ai/ha, 0 to 100 scale (0 no effect, 100 complete control)
# [6] = 125 g ai/ha, 0 to 100 scale, 0 no effect, 100 complete control
# [7] = 125 g ai/ha, 0 to 100 scale (0 no effect, 100 complete control), 10 days
# [8] = 500 g ai/ha, 0 to 100 scale (0 no effect, 100 complete control)
# [9] = 125 g ai/ha, 0 to 100 scale (0 no effect, 100 complete control)
# [10] = 31 g ai/ha, 0 to 100 scale (0 no effect, 100 complete control), 10 days
Compound,"Ryegrass, Italian plant response rating [1, 5]","Plant response rating, Ryegrass, Italian ([1]; 125 g ai/ha, 0 to 100 scale)","Plant response rating, Foxtail, Giant [2, 5]","Plant response rating, Foxtail, Giant [2, 6]","Plant response rating, Corn (corn (Zea mays); [5])","Plant response rating, Corn (corn (Zea mays); [6])","Plant response rating, Ryegrass, Italian [3, 5]","Plant response rating, Ryegrass, Italian [3, 6]","Plant response rating, Wheat [4, 5]","Plant response rating, Wheat [4, 6]","Plant response rating, Ryegrass, Italian [1, 7]","Plant response rating, Ryegrass, Italian ([1]; 500 g ai/ha, 0 to 100 scale)","Plant response rating, Foxtail, Giant [2, 8]","Plant response rating, Corn (corn (Zea mays); [8])","Plant response rating, Ryegrass, Italian [3, 8]","Plant response rating, Wheat [4, 8]","Plant response rating, Foxtail, Giant [2, 9]","Plant response rating, Ryegrass, Italian [3, 9]","Plant response rating, Wheat [4, 9]","Plant response rating, Ryegrass, Italian [1, 10]"
CCOC(=O)N(c1cc(C2=NOC3CCCC23)c(CC)cc1C)S(=O)(=O)C(F)(F)F (centres unmarked) [Compound 379],0,0,0,70,0,0,0,40,0,30,,,,,,,,,,
Cc1cc(Cl)c(NS(=O)(=O)C(F)(F)F)cc1N1CC2(CCCCC2)OC1=O [Compound 394],20,,90,100,0,20,40,100,30,70,40,,,,,,,,,
Cc1cc(C)c(N(COC(=O)C(C)(C)C)S(=O)(=O)C(F)(F)F)cc1N1CCC2(CCC(F)(F)CC2)C1=O [Compound 397],,,,100,,10,,100,,20,50,80,100,60,100,100,,,,
CCOc1cccc2c1C(=O)N(c1cc(N(COC(=O)C(C)(C)C)S(=O)(=O)Cl)c(C)cc1C)C2 [Compound 414],0,,0,,0,10,,,,,0,,,,,,0,30,0,
Cc1cc(C)c(C2=NOC(C(C)C)C2)cc1NS(=O)(=O)C(F)(F)F (centres unmarked) [Compound 381],0,,20,100,0,70,50,90,40,90,0,,,,,,,,,
Cc1cc(C)c(N(S(=O)(=O)C(F)(F)F)S(=O)(=O)C(F)(F)F)cc1N1CCC2(CCC(C(F)(F)F)CC2)C1=O (centres unmarked) [Compound 399],0,,10,90,0,0,40,90,0,20,70,,,,,,,,,
Cc1c(NS(=O)(=O)C(F)(F)F)cc(C2=NOC3(CCCC3)C2)c(C)c1C [Compound 380],0,,80,100,0,30,60,100,30,90,60,,,,,,,,,
Cc1cc(Cl)c(NS(=O)(=O)C(F)(F)F)cc1N1CCC2(CCCCC2)C1=O [Compound 393],30,,70,100,0,80,90,100,40,60,50,,,,,,,,,
Cc1cc(C)c(N(COC(=O)C(C)(C)C)S(=O)(=O)C(F)(F)F)cc1N1CCC2(CCC(C(F)(F)F)CC2)C1=O (centres unmarked) [Compound 403],0,,0,10,0,10,30,30,0,0,0,,,,,,,,,
Cc1cc(C)c(N2Cc3cccc(Br)c3C2=O)cc1NS(=O)(=O)Cl [Compound 415],0,,80,,0,80,,,,,60,,,,,,90,70,50,
Cc1ccc(C2=NOC3CCCC23)cc1NS(=O)(=O)C(F)(F)F (centres unmarked) [Compound 377],0,0,0,0,0,0,0,40,0,20,,,,,,,,,,
COC1CCC2(CC1)CCN(c1cc(NS(=O)(=O)C(F)(F)F)c(C)cc1C)C2=O (centres unmarked) [Compound 398],50,,90,100,0,60,60,100,20,90,90,,,,,,,,,
CCOC(=O)N(c1cc(C(=O)N2CCSCC2)c(C)c(C)c1C)S(=O)(=O)C(F)(F)F [Compound 286],,0,80,100,0,0,0,0,0,30,,,,,,,,,,0
Cc1c(C(=O)N2CCSCC2)cc(N(COC(=O)C(C)(C)C)S(=O)(=O)C(F)(F)F)c(C)c1C [Compound 285],,0,40,90,0,10,0,0,0,20,,,,,,,,,,0
Cc1c(C2=NOC3(CCCC3)C2)cc(N(COC(=O)C(C)(C)C)S(=O)(=O)C(F)(F)F)c(C)c1C [Compound 382],0,,0,30,0,0,30,50,20,20,0,,,,,,,,,
COc1cccc2c1C(=O)N(c1cc(N(COC(=O)C(C)(C)C)S(=O)(=O)Cl)c(C)cc1C)C2 [Compound 413],0,,0,,0,10,,,,,0,,,,,,10,20,0,
Cc1cc(C)c(N2Cc3cccc(C)c3C2=O)cc1NS(=O)(=O)Cl [Compound 408],70,,100,,40,90,,,,,80,,,,,,100,100,100,
CCc1cc(C)c(N(COC(=O)C(C)(C)C)S(=O)(=O)C(F)(F)F)cc1C1=NOC2CCCC12 (centres unmarked) [Compound 378],0,0,0,20,0,0,0,40,10,20,,,,,,,,,,
Cc1c(NS(=O)(=O)C(F)(F)F)cc(C(=O)N2CCSCC2)c(C)c1C [Compound 283],,40,10,90,0,10,0,0,0,50,,,,,,,,,,0
